Laboratory results reported in patent publication US4579859A, “Vasodilating trinitratoalkyl esters of 2-cyano-1,4-dihydropyridines” (Fujisawa Pharmaceutical Co., Ltd., priority 1983, dated 1986).
Converted amounts (≈) assume the structure as drawn. Where two headings read alike, the source gives them in different places.

System: isolated coronary artery
Experiment: Effect on isolated coronary artery (relaxation of KF-contracted spiral strips; papaverine 10^-4 M = 100%)
Design: species or system dogs
Settings: Canis lupus familiaris, read-out: ED50 values
Method: The large coronary arteries, 2.0 mm in outside diameter were removed from pentobarbital-anesthetized dogs. Spiral strips approximately 15 mm in length were cut from the large arteries, and suspended in an organ bath containing calcium-free-Tyrode's solution with EGTA 0.2 mM at 37° C., aerated with a gas mixture of 95% oxygen and 5% carbon dioxide. The tonus of the strips was recorded on a polygraph with a force-displacement transducer. After the initial resting tension was adjusted to 1.0 g for the large artery, potassium fluoride 10 mM was added to the organ bath to increase the tonus of the large arterial strips to 1.4-1.6 g.
The cumulative concentrations of the test compound were then added, and finally paraverine 10^-4 M was given to determine maximum relaxation. ED50 values were calculated by interpolation from the mean cumulative dose-activity curves (effect of papaverine 10^-4 M=100%).

EC50 (isolated dog large coronary artery strips, calcium-free Tyrode's solution with EGTA 0.2 mM, 37° C., tonus by potassium fluoride 10 mM, cumulative concentrations, papaverine 10^-4 M = 100%) [µg/mL]	Compound	EC50 [µg/mL]
> 1	COC(=O)C1=C(C)NC(C)=C(C(=O)OC)C1c1ccccc1[N+](=O)[O-] [Nifedipine, Dimethyl esters of 2,6-dimethyl-4-(2-nitrophenyl)-3,5-dicarboxylic acid, reference compound]	–
–	CCOC(=O)C1=C(C)NC(C)=C(C(=O)OCC(CO[N+](=O)[O-])(CO[N+](=O)[O-])CO[N+](=O)[O-])C1c1cccc(Cl)c1Cl (stereo not drawn) [Compound A, 3-Nitrooxy-2,2-bis(nitrooxymethyl)propyl ester of 4-(2,3-dichlorophenyl)-5-ethoxycarbonyl-2,6-dimethyl-1,4-dihydropyridine-3-carboxylic acid]	0.97 (≈ 1.56 µM)
–	COC(=O)C1=C(C#N)NC(C)=C(C(=O)OCC(CO[N+](=O)[O-])(CO[N+](=O)[O-])CO[N+](=O)[O-])C1c1cccc([N+](=O)[O-])c1 (stereo not drawn) [Compound B, 3-Nitrooxy-2,2-bis(nitrooxymethyl)propyl ester of 6-cyano-5-methoxycarbonyl-2-methyl-4-(3-nitrophenyl)-1,4-dihydropyridine-3-carboxylic acid]	0.17 (≈ 0.285 µM)
